{
  "source": "the kinase profiling compilation of Christmann-Franck et al. (2016)",
  "data": [
    {"target": "DSTYK (human) (UniProt Q6XUX3)", "sequence (Q6XUX3 whole entry, looked up)": "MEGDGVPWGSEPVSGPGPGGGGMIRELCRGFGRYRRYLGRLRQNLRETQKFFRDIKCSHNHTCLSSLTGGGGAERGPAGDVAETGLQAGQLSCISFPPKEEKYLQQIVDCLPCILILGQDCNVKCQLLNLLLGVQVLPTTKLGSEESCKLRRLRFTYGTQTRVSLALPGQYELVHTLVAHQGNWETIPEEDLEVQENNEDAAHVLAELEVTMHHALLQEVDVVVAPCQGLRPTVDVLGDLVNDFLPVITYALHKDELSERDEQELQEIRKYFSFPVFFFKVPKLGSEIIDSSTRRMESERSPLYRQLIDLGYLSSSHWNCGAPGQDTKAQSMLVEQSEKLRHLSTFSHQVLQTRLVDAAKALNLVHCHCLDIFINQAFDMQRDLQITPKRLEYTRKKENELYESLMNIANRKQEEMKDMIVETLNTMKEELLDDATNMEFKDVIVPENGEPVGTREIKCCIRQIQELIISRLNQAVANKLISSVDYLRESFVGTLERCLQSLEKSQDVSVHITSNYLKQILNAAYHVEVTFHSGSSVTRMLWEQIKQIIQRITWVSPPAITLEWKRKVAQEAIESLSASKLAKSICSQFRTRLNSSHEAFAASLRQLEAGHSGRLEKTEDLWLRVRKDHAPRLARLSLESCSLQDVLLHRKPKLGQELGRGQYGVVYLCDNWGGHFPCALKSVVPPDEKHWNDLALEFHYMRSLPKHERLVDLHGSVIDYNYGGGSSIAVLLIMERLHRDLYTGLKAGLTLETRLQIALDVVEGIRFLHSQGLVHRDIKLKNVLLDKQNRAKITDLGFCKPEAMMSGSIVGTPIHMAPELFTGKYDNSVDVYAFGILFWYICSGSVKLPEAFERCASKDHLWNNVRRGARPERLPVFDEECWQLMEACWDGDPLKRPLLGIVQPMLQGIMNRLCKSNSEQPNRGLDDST", "assay": "radiometric filter-binding kinase assay, Kinase HotSpot", "details": "compound 0.5 µM; ATP 10 µM", "units": {"residual activity": "%"}, "values": [
      {"smiles": "CCOc1cc2ncnc(Nc3cccc(Br)c3)c2cc1OCC", "residual activity": 101},
      {"smiles": "O=c1[nH]c2ccccc2n1C1CCN(Cc2ccc(-c3nc4cc5[nH]cnc5cc4nc3-c3ccccc3)cc2)CC1", "residual activity": 104},
      {"smiles": "N#CCCc1ccc2c(c1)-c1[nH]c3ccc([N+](=O)[O-])cc3c1CC(=O)N2", "residual activity": 67.1},
      {"smiles": "O=C(c1ccccc1)c1ccc(N2CCOCC2)cc1O", "residual activity": 86.2},
      {"smiles": "c1ccc(-c2cnc(Nc3ccc(OCCN4CCCC4)cc3)s2)cc1", "residual activity": 90.8}
    ]},
    {"target": "CSK (human) (UniProt P41240)", "sequence (P41240 whole entry, looked up)": "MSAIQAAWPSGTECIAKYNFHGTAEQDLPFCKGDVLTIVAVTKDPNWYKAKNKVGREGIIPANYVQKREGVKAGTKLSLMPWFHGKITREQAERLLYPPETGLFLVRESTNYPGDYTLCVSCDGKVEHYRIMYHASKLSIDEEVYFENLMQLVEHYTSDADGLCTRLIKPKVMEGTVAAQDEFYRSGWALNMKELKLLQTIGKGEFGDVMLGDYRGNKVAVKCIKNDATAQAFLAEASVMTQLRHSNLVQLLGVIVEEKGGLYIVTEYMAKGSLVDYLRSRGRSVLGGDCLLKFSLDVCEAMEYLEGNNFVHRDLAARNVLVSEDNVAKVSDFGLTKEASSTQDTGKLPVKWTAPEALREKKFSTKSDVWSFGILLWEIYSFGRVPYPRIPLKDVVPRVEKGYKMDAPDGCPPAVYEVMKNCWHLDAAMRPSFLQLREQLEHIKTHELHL", "assay": "radiometric filter-binding kinase assay, Kinase HotSpot", "details": "compound 0.5 µM; ATP 10 µM", "units": {"residual activity": "%"}, "values": [
      {"smiles": "Cc1cc(Nc2nc(-c3ccccc3)nc3ccccc23)n[nH]1", "residual activity": 98.4},
      {"smiles": "CCOc1cc2ncnc(Nc3cccc(Br)c3)c2cc1OCC", "residual activity": 94},
      {"smiles": "O=c1[nH]c2ccccc2n1C1CCN(Cc2ccc(-c3nc4cc5[nH]cnc5cc4nc3-c3ccccc3)cc2)CC1", "residual activity": 101},
      {"smiles": "N#CCCc1ccc2c(c1)-c1[nH]c3ccc([N+](=O)[O-])cc3c1CC(=O)N2", "residual activity": 96.3},
      {"smiles": "O=C(c1ccccc1)c1ccc(N2CCOCC2)cc1O", "residual activity": 101},
      {"smiles": "c1ccc(-c2cnc(Nc3ccc(OCCN4CCCC4)cc3)s2)cc1", "residual activity": 89.9}
    ]},
    {"target": "CHEK1 (human) (UniProt O14757)", "sequence (O14757 whole entry, looked up)": "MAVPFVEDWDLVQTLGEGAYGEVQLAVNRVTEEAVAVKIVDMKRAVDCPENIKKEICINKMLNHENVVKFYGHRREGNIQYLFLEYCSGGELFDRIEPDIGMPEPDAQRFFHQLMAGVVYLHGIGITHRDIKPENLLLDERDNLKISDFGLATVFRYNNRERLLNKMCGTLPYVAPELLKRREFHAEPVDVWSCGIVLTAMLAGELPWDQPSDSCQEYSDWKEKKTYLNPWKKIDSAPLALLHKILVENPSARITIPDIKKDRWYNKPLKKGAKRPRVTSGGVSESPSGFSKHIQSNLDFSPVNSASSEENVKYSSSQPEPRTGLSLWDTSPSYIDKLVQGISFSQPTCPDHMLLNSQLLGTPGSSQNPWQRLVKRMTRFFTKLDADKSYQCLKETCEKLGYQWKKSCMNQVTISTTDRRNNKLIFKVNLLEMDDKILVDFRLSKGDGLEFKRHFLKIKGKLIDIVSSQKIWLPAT", "assay": "radiometric filter-binding kinase assay, Kinase HotSpot", "details": "compound 0.5 µM; ATP 10 µM", "units": {"residual activity": "%"}, "values": [
      {"smiles": "Cc1cc(Nc2nc(-c3ccccc3)nc3ccccc23)n[nH]1", "residual activity": 69.1},
      {"smiles": "CCOc1cc2ncnc(Nc3cccc(Br)c3)c2cc1OCC", "residual activity": 115},
      {"smiles": "O=c1[nH]c2ccccc2n1C1CCN(Cc2ccc(-c3nc4cc5[nH]cnc5cc4nc3-c3ccccc3)cc2)CC1", "residual activity": 107},
      {"smiles": "N#CCCc1ccc2c(c1)-c1[nH]c3ccc([N+](=O)[O-])cc3c1CC(=O)N2", "residual activity": 45.1},
      {"smiles": "O=C(c1ccccc1)c1ccc(N2CCOCC2)cc1O", "residual activity": 108},
      {"smiles": "c1ccc(-c2cnc(Nc3ccc(OCCN4CCCC4)cc3)s2)cc1", "residual activity": 86.6}
    ]},
    {"target": "MYLK2 (human) (UniProt Q9H1R3)", "sequence (Q9H1R3 whole entry, looked up)": "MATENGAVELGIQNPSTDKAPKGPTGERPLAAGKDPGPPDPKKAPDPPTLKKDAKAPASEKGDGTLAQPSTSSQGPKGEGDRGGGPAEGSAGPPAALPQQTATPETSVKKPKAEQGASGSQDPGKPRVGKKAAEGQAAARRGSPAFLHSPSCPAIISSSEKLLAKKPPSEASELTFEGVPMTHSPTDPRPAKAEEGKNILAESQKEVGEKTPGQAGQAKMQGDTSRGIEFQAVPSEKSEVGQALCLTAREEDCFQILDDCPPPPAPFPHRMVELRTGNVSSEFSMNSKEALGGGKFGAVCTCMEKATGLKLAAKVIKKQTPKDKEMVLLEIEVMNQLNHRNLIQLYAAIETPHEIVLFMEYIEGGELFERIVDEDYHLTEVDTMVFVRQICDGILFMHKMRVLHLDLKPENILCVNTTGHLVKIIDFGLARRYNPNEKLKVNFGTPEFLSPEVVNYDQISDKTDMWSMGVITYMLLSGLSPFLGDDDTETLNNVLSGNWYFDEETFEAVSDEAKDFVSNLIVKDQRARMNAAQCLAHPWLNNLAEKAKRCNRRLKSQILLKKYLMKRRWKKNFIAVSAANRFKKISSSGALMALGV", "assay": "radiometric filter-binding kinase assay, Kinase HotSpot", "details": "compound 0.5 µM; ATP 10 µM", "units": {"residual activity": "%"}, "values": [
      {"smiles": "Cc1cc(Nc2nc(-c3ccccc3)nc3ccccc23)n[nH]1", "residual activity": 62.8},
      {"smiles": "CCOc1cc2ncnc(Nc3cccc(Br)c3)c2cc1OCC", "residual activity": 93.5},
      {"smiles": "O=c1[nH]c2ccccc2n1C1CCN(Cc2ccc(-c3nc4cc5[nH]cnc5cc4nc3-c3ccccc3)cc2)CC1", "residual activity": 103},
      {"smiles": "N#CCCc1ccc2c(c1)-c1[nH]c3ccc([N+](=O)[O-])cc3c1CC(=O)N2", "residual activity": 93.9},
      {"smiles": "O=C(c1ccccc1)c1ccc(N2CCOCC2)cc1O", "residual activity": 99.1},
      {"smiles": "c1ccc(-c2cnc(Nc3ccc(OCCN4CCCC4)cc3)s2)cc1", "residual activity": 28.7}
    ]},
    {"target": "EPHB3 (human) (UniProt P54753)", "assay": "radiometric filter-binding kinase assay, Kinase HotSpot", "details": "compound 0.5 µM; ATP 10 µM", "units": {"residual activity": "%"}, "values": [
      {"smiles": "Cc1cc(Nc2nc(-c3ccccc3)nc3ccccc23)n[nH]1", "residual activity": 86.5},
      {"smiles": "CCOc1cc2ncnc(Nc3cccc(Br)c3)c2cc1OCC", "residual activity": 99.7},
      {"smiles": "O=c1[nH]c2ccccc2n1C1CCN(Cc2ccc(-c3nc4cc5[nH]cnc5cc4nc3-c3ccccc3)cc2)CC1", "residual activity": 104},
      {"smiles": "N#CCCc1ccc2c(c1)-c1[nH]c3ccc([N+](=O)[O-])cc3c1CC(=O)N2", "residual activity": 102},
      {"smiles": "O=C(c1ccccc1)c1ccc(N2CCOCC2)cc1O", "residual activity": 92.2},
      {"smiles": "c1ccc(-c2cnc(Nc3ccc(OCCN4CCCC4)cc3)s2)cc1", "residual activity": 93.3}
    ]},
    {"target": "PAK7 (human) (UniProt Q9P286)", "sequence (Q9P286 whole entry, looked up)": "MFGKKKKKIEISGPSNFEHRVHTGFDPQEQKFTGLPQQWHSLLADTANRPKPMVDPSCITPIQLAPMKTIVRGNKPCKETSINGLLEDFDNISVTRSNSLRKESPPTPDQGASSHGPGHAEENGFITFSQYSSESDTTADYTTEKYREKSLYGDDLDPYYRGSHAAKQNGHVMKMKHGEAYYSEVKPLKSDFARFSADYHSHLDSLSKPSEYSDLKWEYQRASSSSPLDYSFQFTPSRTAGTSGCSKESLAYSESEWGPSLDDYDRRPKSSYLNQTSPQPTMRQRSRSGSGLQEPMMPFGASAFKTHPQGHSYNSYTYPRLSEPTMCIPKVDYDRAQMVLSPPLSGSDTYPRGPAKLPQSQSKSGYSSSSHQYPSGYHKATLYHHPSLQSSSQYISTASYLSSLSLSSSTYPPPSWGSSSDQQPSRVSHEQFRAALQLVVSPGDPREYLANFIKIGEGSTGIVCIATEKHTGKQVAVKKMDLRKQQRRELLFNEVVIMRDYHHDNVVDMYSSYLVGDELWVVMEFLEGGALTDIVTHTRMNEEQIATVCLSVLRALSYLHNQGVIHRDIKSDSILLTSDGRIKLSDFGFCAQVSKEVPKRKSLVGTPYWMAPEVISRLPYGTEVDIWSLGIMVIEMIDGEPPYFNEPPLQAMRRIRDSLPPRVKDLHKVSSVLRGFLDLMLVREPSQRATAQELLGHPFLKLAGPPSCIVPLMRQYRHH", "assay": "radiometric filter-binding kinase assay, Kinase HotSpot", "details": "compound 0.5 µM; ATP 10 µM", "units": {"residual activity": "%"}, "values": [
      {"smiles": "Cc1cc(Nc2nc(-c3ccccc3)nc3ccccc23)n[nH]1", "residual activity": 53.1},
      {"smiles": "CCOc1cc2ncnc(Nc3cccc(Br)c3)c2cc1OCC", "residual activity": 99.1},
      {"smiles": "O=c1[nH]c2ccccc2n1C1CCN(Cc2ccc(-c3nc4cc5[nH]cnc5cc4nc3-c3ccccc3)cc2)CC1", "residual activity": 110},
      {"smiles": "N#CCCc1ccc2c(c1)-c1[nH]c3ccc([N+](=O)[O-])cc3c1CC(=O)N2", "residual activity": 60.3},
      {"smiles": "O=C(c1ccccc1)c1ccc(N2CCOCC2)cc1O", "residual activity": 99.2},
      {"smiles": "c1ccc(-c2cnc(Nc3ccc(OCCN4CCCC4)cc3)s2)cc1", "residual activity": 87.2}
    ]},
    {"target": "CLK3 (human) (UniProt P49761)", "sequence (P49761 whole entry, looked up)": "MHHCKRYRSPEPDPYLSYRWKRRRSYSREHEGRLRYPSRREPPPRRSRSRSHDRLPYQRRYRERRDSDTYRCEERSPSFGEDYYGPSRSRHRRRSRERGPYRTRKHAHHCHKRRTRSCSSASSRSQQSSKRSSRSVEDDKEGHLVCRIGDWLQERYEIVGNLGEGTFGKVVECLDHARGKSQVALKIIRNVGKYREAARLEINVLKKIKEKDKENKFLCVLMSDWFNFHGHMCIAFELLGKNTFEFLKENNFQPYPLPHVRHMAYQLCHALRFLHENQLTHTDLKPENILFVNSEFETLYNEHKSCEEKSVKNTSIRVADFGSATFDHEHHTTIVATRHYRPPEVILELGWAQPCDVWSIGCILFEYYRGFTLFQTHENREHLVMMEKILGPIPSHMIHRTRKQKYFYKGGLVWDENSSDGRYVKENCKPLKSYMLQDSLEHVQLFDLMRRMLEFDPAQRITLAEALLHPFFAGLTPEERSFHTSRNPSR", "assay": "radiometric filter-binding kinase assay, Kinase HotSpot", "details": "compound 0.5 µM; ATP 10 µM", "units": {"residual activity": "%"}, "values": [
      {"smiles": "Cc1cc(Nc2nc(-c3ccccc3)nc3ccccc23)n[nH]1", "residual activity": 33.8},
      {"smiles": "CCOc1cc2ncnc(Nc3cccc(Br)c3)c2cc1OCC", "residual activity": 85.3},
      {"smiles": "O=c1[nH]c2ccccc2n1C1CCN(Cc2ccc(-c3nc4cc5[nH]cnc5cc4nc3-c3ccccc3)cc2)CC1", "residual activity": 111},
      {"smiles": "N#CCCc1ccc2c(c1)-c1[nH]c3ccc([N+](=O)[O-])cc3c1CC(=O)N2", "residual activity": 108},
      {"smiles": "O=C(c1ccccc1)c1ccc(N2CCOCC2)cc1O", "residual activity": 90.2},
      {"smiles": "c1ccc(-c2cnc(Nc3ccc(OCCN4CCCC4)cc3)s2)cc1", "residual activity": 94.3}
    ]},
    {"target": "LCK (human) (UniProt P06239)", "sequence (P06239 whole entry, looked up)": "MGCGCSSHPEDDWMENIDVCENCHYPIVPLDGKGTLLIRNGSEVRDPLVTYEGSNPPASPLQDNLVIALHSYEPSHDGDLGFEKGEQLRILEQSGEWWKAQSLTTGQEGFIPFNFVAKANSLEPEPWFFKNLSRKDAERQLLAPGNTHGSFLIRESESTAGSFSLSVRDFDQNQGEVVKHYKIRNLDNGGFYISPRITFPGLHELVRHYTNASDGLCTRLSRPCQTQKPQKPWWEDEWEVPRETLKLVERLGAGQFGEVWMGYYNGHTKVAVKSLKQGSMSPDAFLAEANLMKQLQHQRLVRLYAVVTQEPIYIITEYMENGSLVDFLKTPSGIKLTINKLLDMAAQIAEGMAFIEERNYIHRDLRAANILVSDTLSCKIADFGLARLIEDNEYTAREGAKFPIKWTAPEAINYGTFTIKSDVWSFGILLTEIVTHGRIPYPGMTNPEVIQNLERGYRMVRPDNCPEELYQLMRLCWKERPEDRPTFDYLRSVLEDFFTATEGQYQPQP", "assay": "radiometric filter-binding kinase assay, Kinase HotSpot", "details": "compound 0.5 µM; ATP 10 µM", "units": {"residual activity": "%"}, "values": [
      {"smiles": "Cc1cc(Nc2nc(-c3ccccc3)nc3ccccc23)n[nH]1", "residual activity": 75.6},
      {"smiles": "CCOc1cc2ncnc(Nc3cccc(Br)c3)c2cc1OCC", "residual activity": 52.9},
      {"smiles": "O=c1[nH]c2ccccc2n1C1CCN(Cc2ccc(-c3nc4cc5[nH]cnc5cc4nc3-c3ccccc3)cc2)CC1", "residual activity": 98.2},
      {"smiles": "N#CCCc1ccc2c(c1)-c1[nH]c3ccc([N+](=O)[O-])cc3c1CC(=O)N2", "residual activity": 78.2},
      {"smiles": "O=C(c1ccccc1)c1ccc(N2CCOCC2)cc1O", "residual activity": 101},
      {"smiles": "c1ccc(-c2cnc(Nc3ccc(OCCN4CCCC4)cc3)s2)cc1", "residual activity": 48.6}
    ]},
    {"target": "PHKG2 (human) (UniProt P15735)", "sequence (P15735 whole entry, looked up)": "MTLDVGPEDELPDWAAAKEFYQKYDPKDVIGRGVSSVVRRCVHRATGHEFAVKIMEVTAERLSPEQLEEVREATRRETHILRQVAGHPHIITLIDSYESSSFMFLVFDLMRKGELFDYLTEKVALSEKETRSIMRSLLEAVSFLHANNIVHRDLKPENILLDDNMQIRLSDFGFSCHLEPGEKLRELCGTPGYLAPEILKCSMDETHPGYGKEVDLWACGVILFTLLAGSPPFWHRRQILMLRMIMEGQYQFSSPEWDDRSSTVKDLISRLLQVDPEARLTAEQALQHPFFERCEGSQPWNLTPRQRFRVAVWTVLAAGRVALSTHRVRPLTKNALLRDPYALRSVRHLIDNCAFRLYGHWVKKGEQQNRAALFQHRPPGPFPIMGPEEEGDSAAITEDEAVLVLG", "assay": "radiometric filter-binding kinase assay, Kinase HotSpot", "details": "compound 0.5 µM; ATP 10 µM", "units": {"residual activity": "%"}, "values": [
      {"smiles": "Cc1cc(Nc2nc(-c3ccccc3)nc3ccccc23)n[nH]1", "residual activity": 86.3},
      {"smiles": "CCOc1cc2ncnc(Nc3cccc(Br)c3)c2cc1OCC", "residual activity": 101},
      {"smiles": "O=c1[nH]c2ccccc2n1C1CCN(Cc2ccc(-c3nc4cc5[nH]cnc5cc4nc3-c3ccccc3)cc2)CC1", "residual activity": 104},
      {"smiles": "N#CCCc1ccc2c(c1)-c1[nH]c3ccc([N+](=O)[O-])cc3c1CC(=O)N2", "residual activity": 99.1},
      {"smiles": "O=C(c1ccccc1)c1ccc(N2CCOCC2)cc1O", "residual activity": 101},
      {"smiles": "c1ccc(-c2cnc(Nc3ccc(OCCN4CCCC4)cc3)s2)cc1", "residual activity": 97}
    ]},
    {"target": "ZAP70 (human) (UniProt P43403)", "assay": "radiometric filter-binding kinase assay, Kinase HotSpot", "details": "compound 0.5 µM; ATP 10 µM", "units": {"residual activity": "%"}, "values": [
      {"smiles": "Cc1cc(Nc2nc(-c3ccccc3)nc3ccccc23)n[nH]1", "residual activity": 105}
    ]}
  ]
}
